The record followed here is patent US7767671B2, “3-Quinolinecarbonitrile protein kinase inhibitors” (Wyeth, priority 2004, dated 2010).

Counter-ions that a name gives are not always drawn.

In data set [1] the target is T1, Raf and/or Mek kinase (human c-Raf, GST-MEK1) (Homo sapiens, UniProt P04049+Q02750).
T1 construct: Sf9 insect cell lysate containing full length 6his-tagged recombinant human c-Raf; 6His; host or cells: Sf9 insect cells (c-Raf, used as lysate); E. coli (MEK1-GST, GST-MAPK)
Description: Raf/Mek kinase cascade assay. The class given is biochemical. Conditions: c-Raf dependent activation of GST-MEK and GST-MAPK, phospho-MAPK ELISA; (a)/(b)/(c) = average of two/three/four runs. The method, then:
Raf/Mek Kinase Cascade Assay Procedure
(Specific Activity: ˜200 U/ml). Human Non-active Mek-1-GST and human GST-MAP kinase (recombinant proteins produced in E. coli).
Stock Solutions Raf/Mek Cascade Assay:
• 1. Assay Dilution Buffer (ADB): 20 mM MOPS, pH 7.2, 25 mM β-glycerol phosphate, 5 mM EGTA, 1 mM sodium orthovanadate, 1 mM dithiothreitol; • 2. Magnesium/ATP Cocktail: 500 μM cold ATP and 75 mM magnesium chloride in ADB; • 3. Active Kinase: Human Active c-Raf: Use at 0.4 U per assay point; • 4. Non-active GST-MEK1: Use at 0.1 μg per assay point; and • 5. Non-active GST-p42 MAP Kinase: Use at 1.0 μg per assay point. Stock Solutions ELISA: • 1. TBST-Tris (50 mM, pH 7.5), NaCl (150 mM), Tween-20 (0.05%); • 2. Superblock (Pierce); • 3. Anti-GST Ab (Pharmacia); • 4. Anti-Phospho MAPK (Sigma); and • 5. Anti-Mouse Ab/Europium conjugate (Wallac). Assay Procedure: First Stage: c-Raf Dependent Activation of GST-MEK and GST-MAPK • 1. Add […] of ADB per assay (i.e. per well of a 96 well plate); • 2. Add 10 ml of 0.5 mM cold ATP and 75 mM magnesium chloride in ADB; • 3. Add 2 ml of c-Raf (0.4 U/assay), in conjunction with 1.6 ml non-active MEK1 (0.4 […]/assay); • 4. Add 4 ml of non-active GST-p42 MAP Kinase (1.0 mg/assay); • 5. Incubate for 60 minutes at 30° C. in a shaking incubator; • 6. Transfer this mixture to an anti-GST Ab coated 96 well plate (Nunc Immunosorb plates coated o/n with a-GST, then blocked with Pierce Superblock); • 7. Incubate for 60 minutes at 30° C. in a shaking incubator; • 8. Wash 3× with TBST, add Anti-Phospho MAPK (Sigma) (1:3000); • 9. Incubate for 60 minutes at 30° C. in a shaking incubator; • 10. Wash 3× with TBST, add Anti-Mouse Ab/Europium conjugate (Wallac) (1:500); • 11. Incubate for 60 minutes at 30° C. in a shaking incubator; • 12. Wash 3× with TBST, Read plates in Wallac Victor model Plate Reader; and • 13. Collect data analyze in Excel for single point and IC50 determinations.
Single point assay—% inhibition at […] (% Inhibition=1−cpd·treated sample/untreated control). IC50 determinations—done on compounds from single point assays with >80% inhibition. Typically, the Raf/Mek assay is run at compound concentrations from 10 μM to 1 nM in half log dilutions. (% inhibition is determined for each compound concentration). The results obtained measure Raf and/or Mek kinase inhibition, and for representative compounds of this invention are listed in Table 1.
In general terms: In an ELISA, binding on a coated surface is turned into a signal by an enzyme label.

In the next data set the test system is BxPC3. Description: Cell based screen for inhibitors of Raf and/or Mek kinase (SRB), BxPC3. The following applies: Homo sapiens, BXPC-3, BxPC3 cells, (a)/(b) = average of two/three runs. The method, then:
[The procedure below names another cell line; the source lists this cell line under the same test.] (§1) Cell Based Screen for Inhibitors of Raf and/or Mek Kinase. Materials
(§2) Cells are plated at 2000 cells per well for cell line LoVo and 1500 cells for cell line CaCo-2 in 96 well plates. Cells are plated in media (200 μl) and allowed to adhere overnight at 37° C. At 24 hours post plating, compounds are added directly at a volume of 0.5 μl. For the qualitative screen (compounds screened at 25 μM) compound is added directly to cells. For the quantitative screen, compound is first diluted in DMSO to generate concentrations of compound or reference standard of: 1, 5, 10 and 25 μM. It is advisable to make the dilutions in an identical 96 well plate so that compounds can be added using a multichannel micropipettor set at 0.5 μl. The cells are then incubated for four days after which the media is removed using a 12 well manifold by first tipping the plate forward at a 45 degree angle and then inserting the manifold in an upright orientation to prevent the tips of the manifold from disturbing cells at the bottom of the plate. 200 μl of normal saline is then added to each well using an 8 well multichannel pipettor, followed by the careful addition of 50 μl of 50% TCA. The plates are then incubated for 2 hours at 4° C., after which the supernatant is removed using the same technique as above and the plated cells are washed twice with 200 μl water. The plates are then air dried and 50 μl of SRB stock solution is carefully added so that the entire bottom of each well is covered. This again can be done using an 8 well multichannel pipettor. The SRB is incubated with fixed cells for 15 minutes at room temperature after which the SRB is removed with the manifold as described above and the plates washed twice with 350 μl of 1% acetic acid per well each time. The plates are then air dried after which the bound SRB is released from protein by the addition of 200 μl of Tris base. Resolubilizing the SRB is aided by placing the plates on a rotator for 15-30 minutes. The absorbance of each well is determined at 550 or 562 nm using a microtiter plate reader.
(§3) Each compound or dilution thereof is performed in triplicate. Outliers are identified by visual inspection of the data. Each plate should have a “0” control (vehicle only).
(§4) Quantitative Assay: A standard curve is constructed by plotting the concentration of compound against the average absorbance calculated at that concentration. A curve is plotted and the concentration at which the curve passes through the 50% the absorbance mark seen in the “0” control well is the IC50 calculated for that compound. Multiple entries for a given compound indicate that it is tested multiple times.

The test system of the next data set is LoVo. In words: Cell based screen for inhibitors of Raf and/or Mek kinase (SRB), LoVo. On the set-up: species or system human. The following applies: LoVo cells, four days incubation, (a)/(b)/(c) = average of two/three/five runs. The method, then:
as §1
Cell Lines: Human adenocarcinoma cell line LoVo, known to be growth inhibited by low nM concentrations of a reference standard inhibitor of Ras and human adenocarcinoma cell line CaCo-2, known to be growth resistant to the same reference compound.
Cell Media: RPMI 1640 with 10% Fetal Bovine Serum supplemented with L-glutamine and Penicillin/Streptomycin.
as §2, §3, §4

T1 sequence (P04049 whole entry): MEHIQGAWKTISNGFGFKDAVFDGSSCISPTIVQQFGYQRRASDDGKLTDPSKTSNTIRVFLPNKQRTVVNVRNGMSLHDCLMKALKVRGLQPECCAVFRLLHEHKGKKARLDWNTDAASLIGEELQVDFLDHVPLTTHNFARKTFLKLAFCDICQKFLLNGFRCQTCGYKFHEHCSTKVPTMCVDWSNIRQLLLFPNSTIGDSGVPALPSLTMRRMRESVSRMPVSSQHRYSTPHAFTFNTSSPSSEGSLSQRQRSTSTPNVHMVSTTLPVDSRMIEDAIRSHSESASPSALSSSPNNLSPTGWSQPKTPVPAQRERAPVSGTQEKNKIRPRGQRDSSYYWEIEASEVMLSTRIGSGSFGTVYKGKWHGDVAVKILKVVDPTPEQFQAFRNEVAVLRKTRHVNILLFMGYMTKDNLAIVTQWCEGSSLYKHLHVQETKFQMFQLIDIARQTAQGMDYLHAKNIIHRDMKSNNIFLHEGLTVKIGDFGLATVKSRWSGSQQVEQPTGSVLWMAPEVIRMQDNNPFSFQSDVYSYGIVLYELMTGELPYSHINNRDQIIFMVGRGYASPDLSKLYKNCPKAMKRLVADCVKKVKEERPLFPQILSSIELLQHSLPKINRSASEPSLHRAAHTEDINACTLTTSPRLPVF
T1 sequence (Q02750 whole entry): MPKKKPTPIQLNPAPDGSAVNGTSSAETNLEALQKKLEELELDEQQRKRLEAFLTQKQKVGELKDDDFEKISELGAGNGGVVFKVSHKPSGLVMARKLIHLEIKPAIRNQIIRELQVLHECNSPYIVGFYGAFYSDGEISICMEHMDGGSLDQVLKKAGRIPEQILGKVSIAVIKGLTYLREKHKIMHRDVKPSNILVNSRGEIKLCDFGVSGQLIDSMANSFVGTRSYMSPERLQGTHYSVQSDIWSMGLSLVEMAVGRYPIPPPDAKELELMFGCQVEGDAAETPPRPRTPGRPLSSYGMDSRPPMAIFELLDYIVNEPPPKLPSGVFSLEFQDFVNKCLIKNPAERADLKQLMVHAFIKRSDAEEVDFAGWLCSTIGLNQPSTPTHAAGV

What is called IC50 is the concentration that inhibits the measured activity by half. Read a high IC50 as lower potency. By melting point is commonly meant the temperature of the solid-liquid transition. For the compound `CCOc1cc2c(Nc3ccc(Sc4nccn4C)c(Cl)c3)c(C#N)cnc2cc1N1CCC(N2CCCC2)CC1` [Example 18, 4-({3-chloro-4-[(1-methyl-1H-imidazole-2-yl)thio]phenyl}amino)-6-ethoxy-7-(4-pyrrolidin-1-ylpiperidin-1-yl)quinoline-3-carbonitrile], the melting point lay in the range of 203 to 207 °C. In addition, the midpoint of inhibition in data set [1], the IC50, lay at 75 nM. Also, the IC50 in the data set on BxPC3 is 30 nM. For the same compound, the IC50 in the data set with LoVo (Homo sapiens, 96 h) turned out to be 27 nM.
The like results for `COc1cc2c(Nc3ccc(Sc4ccccn4)cc3)c(C#N)cnc2cc1N1CCC(N2CCCC2)CC1` [Example 13, 6-Methoxy-4-[4-(pyridin-2-ylsulfanyl)phenylamino]-7-(4-pyrrolidin-1-yl-piperidin-1-yl)-quinoline-3-carbonitrile] were, in that order, 182 to 184 °C, 1430 nM, 600 nM and 470 nM.
Compound `COc1cc2c(Nc3ccc(Sc4nccn4C)c(Cl)c3)c(C#N)cnc2cc1N1CCN(CCn2ccnc2)CC1` [Example 23, 4-({3-Chloro-4-[(1-methyl-1H-imidazole-2-yl)thio]phenyl}amino)-7-{4-[2-(1H-imidazole-1-yl)ethyl]piperazin-1-yl}-6-methoxyquinoline-3-carbonitrile] yielded a melting point of 251 to 253 °C. Besides, half-maximal inhibition in data set [1] (IC50) was put at 188 nM. The compound also registered an IC50 in the data set on LoVo (Homo sapiens, 96 h) of 474 nM.
With `COc1cc2c(Nc3ccc(Sc4nccn4C)c(Cl)c3)c(C#N)cnc2cc1N1CCC(N2CCCCC2)CC1` [Example 19], the IC50 was 199 nM in data set [1] and 8 nM in the data set on LoVo.
The compound `COc1cc2c(Nc3ccc(Sc4nccn4C)c(Cl)c3)c(C#N)cnc2cc1OCCCN1CCC(N2CCCC2)CC1` [Example 33, 4-{3-Chloro-4-[(1-methyl-1H-imidazole-2-yl)sulfanyl]anilino}-6-methoxy-7-{3-[4-(1-pyrrolidinyl)-1-piperidinyl]propoxy}-3-quinolinecarbonitrile] displayed a melting point of 196 to 198 °C. The compound also gave a half-inhibitory concentration (IC50) in data set [1] of 3 nM. Besides, in the data set with BxPC3, the IC50 was found to be 49 nM. In addition, it took 47 nM to reach half-maximal inhibition in the data set on LoVo (Homo sapiens, 96 h) (IC50).
In the case of `COc1cc2c(Nc3ccc(Sc4nccn4C)c(Cl)c3)c(C#N)cnc2cc1N1CCN(C2CCN(C)CC2)CC1` [Example 22, 4-({3-Chloro-4-[(1-methyl-1H-imidazole-2-yl)thio]phenyl}amino)-6-methoxy-7-[4-(1-methylpiperidin-4-yl)piperazin-1-yl]quinoline-3-carbonitrile], the melting point lay within 220 to 226 °C. The same compound registered an IC50 in data set [1] of 273 nM. The compound also registered an IC50 in the data set on LoVo (Homo sapiens, 96 h) of 80 nM.
Take `COc1cc2c(Nc3ccc(Sc4nccn4C)c(Cl)c3)c(C#N)cnc2cc1N1CCC(N2CCOCC2)CC1` [Example 21, 4-({3-Chloro-4-[(1-methyl-1H-imidazole-2-yl)thio]phenyl}amino)-6-methoxy-7-(4-morpholin-4-ylpiperidin-1-yl)quinoline-3-carbonitrile]: the melting point fell in the range of 219 to 221 °C. The compound also came in with an IC50 in data set [1] of 181 nM. In the data set with LoVo (Homo sapiens, 96 h), the IC50 was 20 nM.
In turn, `Cn1ccnc1Sc1ccc(Nc2c(C#N)cnc3cc(N4CCC(N5CCCC5)CC4)c(N)cc23)cc1Cl` [Example 27, 6-Amino-4-[3-chloro-4-(1-methyl-1H-imidazole-2-ylsulfanyl)phenylamino]-7-(4-pyrrolidin-1-yl-piperidin-1-yl)quinoline-3-carbonitrile] showed a melting point of 265 to 267 °C.
In the case of `Cn1ccnc1Sc1ccc(Nc2c(C#N)cnc3cc(N4CCC(N5CCCC5)CC4)c([N+](=O)[O-])cc23)cc1Cl` [Example 26, 4-({3-Chloro-4-[(1-methyl-1H-imidazole-2-yl)thio]phenyl}amino)-6-nitro-7-(4-pyrrolidin-1-ylpiperidin-1-yl)quinoline-3-carbonitrile], the melting point lay in the range of 220 to 230 °C.
In the case of `N#Cc1c[nH]c2cc(N3CCC(N4CCCC4)CC3)c([N+](=O)[O-])cc2c1=O` [Example 24, 6-Nitro-4-oxo-7-(4-pyrrolidin-1-ylpiperidin-1-yl)-1,4-dihydroquinoline-3-carbonitrile], the melting point lay within 232 to 235 °C.
Turning to `COc1ccccc1Oc1ccc(Nc2c(C#N)cnc3cc(N4CCC(N5CCCC5)CC4)c(OC)cc23)cc1` [Example 12, 6-Methoxy-4-{[4-(2-methoxyphenoxy)phenyl]amino}-7-(4-pyrrolidin-1-ylpiperidin-1-yl)quinoline-3-carbonitrile, trifluoroacetate salt], the IC50 is 210 nM in data set [1]; 1400 nM with BxPC3; 460 nM in the data set on LoVo (Homo sapiens, 96 h).
`COCCOc1cc2c(Nc3ccc(Sc4nccn4C)c(Cl)c3)c(C#N)cnc2cc1N1CCC(N2CCCC2)CC1` [Example 17, 4-({3-Chloro-4-[(1-methyl-1H-imidazole-2-yl)thio]phenyl}amino)-6-(2-methoxyethoxy)-7-(4-pyrrolidin-1-ylpiperidin-1-yl)quinoline-3-carbonitrile] registered a melting point of 238 to 241 °C. This compound gave an IC50 in data set [1] of 320 nM. Inhibition in the data set on LoVo (Homo sapiens, 96 h) was half-maximal at 31 nM (IC50).
For the compound `COc1cc2c(Nc3ccc(Sc4nccn4C)c(Cl)c3)c(C#N)cnc2cc1OCCN1CCC(N2CCCC2)CC1` [Example 36, 4-{3-Chloro-4-[(1-methyl-1H-imidazole-2-yl)sulfanyl]anilino}-6-methoxy-7-{2-[4-(1-pyrrolidinyl)-1-piperidinyl]ethoxy}-3-quinolinecarbonitrile], the melting point was in the range of 127 to 130 °C.
On to `N#Cc1cnc2cc(N3CCC(N4CCCC4)CC3)c([N+](=O)[O-])cc2c1Cl` [Example 25, 4-chloro-6-nitro-7-(4-pyrrolidin-1-ylpiperidin-1-yl)quinoline-3-carbonitrile], for which the melting point is 255 to 265 °C (dec.).
